Measured values from ChEMBL document CHEMBL1201862, “PubChem BioAssay data set” (2004).
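Following 48 hours of exposure in 96-well plates, responses at five concentrations were used to interpolate endpoints linearly. GI50 = concentration required for 50% inhibition of growth.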 The source made the active and inactive calls. Rule as the data show it: active = GI50 up to about 1.1 µM and inactive = higher.

Key:
Experiment in all cases: NCI tumour cell line growth inhibition, 48 h
HOP-18 = system: HOP-18
HL-60 = system: HL-60
SK-MEL-5 = system: SK-MEL-5
NCI-H23 = system: NCI-H23
DMS-273 = system: DMS-273
SF-295 = system: SF-295
K562 = system: K562
SF-268 = system: SF-268
LXFL 529 = system: LXFL 529
UACC-257 = system: UACC-257
OVCAR-5 = system: OVCAR-5
IGROV-1 = system: IGROV-1
SF-539 = system: SF-539
HCT-15 = system: HCT-15
SK-OV-3 = system: SK-OV-3
OVCAR-8 = system: OVCAR-8
UACC-62 = system: UACC-62
SNB-75 = system: SNB-75
A549 = system: A549
OVCAR-4 = system: OVCAR-4
786-0 = system: 786-0
TK-10 = system: TK-10
SNB-78 = system: SNB-78
DMS-114 = system: DMS-114
DLD-1 = system: DLD-1
OVCAR-3 = system: OVCAR-3
MOLT-4 = system: MOLT-4
UO-31 = system: UO-31
NCI-H226 = system: NCI-H226
HCT-116 = system: HCT-116
NCI-H460 = system: NCI-H460
SW-620 = system: SW-620
SR = system: SR
HT-29 = system: HT-29
RPMI-8226 = system: RPMI-8226
ACHN = system: ACHN
EKVX = system: EKVX
M14 = system: M14
CAKI-1 = system: CAKI-1
CCRF-CEM = system: CCRF-CEM
LOX IMVI = system: LOX IMVI
SNB-19 = system: SNB-19
XF498 = system: XF498
SN12C = system: SN12C
Malme-3M = system: Malme-3M
KM12 = system: KM12
U-251 = system: U-251
HOP-92 = system: HOP-92
KM-20L2 = system: KM-20L2
RXF 631 = system: RXF 631
SK-MEL-28 = system: SK-MEL-28
SK-MEL-2 = system: SK-MEL-2
M19-MEL = system: M19-MEL
RXF 393 = system: RXF 393
COLO 205 = system: COLO 205
HOP-62 = system: HOP-62
NCI-H522 = system: NCI-H522
HCC 2998 = system: HCC 2998
A498 = system: A498

Measured: GI50

O=S(=O)(O)c1ccc(/N=N/c2nc(C(F)(F)F)c(C(F)(F)F)[nH]2)cc1
inactive: HOP-18 25.5 µM | HL-60 32.1 µM | SK-MEL-5 > 100 µM | NCI-H23 24.2 µM | DMS-273 > 100 µM | SF-295 65.2 µM | K562 53.8 µM | SF-268 56.5 µM | LXFL 529 87.3 µM | UACC-257 69.5 µM | OVCAR-5 18.1 µM | IGROV-1 > 100 µM | SF-539 29.6 µM | SK-OV-3 > 100 µM | OVCAR-8 29.4 µM | UACC-62 28.4 µM | SNB-75 75.9 µM | A549 61.8 µM | OVCAR-4 21.6 µM | 786-0 > 100 µM | TK-10 > 100 µM | SNB-78 96.2 µM | DMS-114 16.8 µM | DLD-1 43.5 µM | OVCAR-3 33 µM | MOLT-4 24.2 µM | UO-31 34 µM | NCI-H226 31.5 µM | HCT-116 37.7 µM | NCI-H460 82 µM | SW-620 41.5 µM | SR 21.2 µM | HT-29 77.1 µM | RPMI-8226 > 100 µM | ACHN > 100 µM | EKVX 43.5 µM | M14 20.8 µM | CAKI-1 29.2 µM | CCRF-CEM 45.4 µM | LOX IMVI 15.8 µM | SNB-19 29.9 µM | XF498 17.2 µM | SN12C 66.5 µM | Malme-3M 29.2 µM | KM12 > 100 µM | U-251 41.9 µM | HOP-92 16.6 µM | KM-20L2 76.7 µM | RXF 631 30.8 µM | SK-MEL-28 19.2 µM | SK-MEL-2 30.3 µM | M19-MEL 39.2 µM | RXF 393 18.4 µM | COLO 205 74.8 µM | HOP-62 36.6 µM
31.4 µM: HCT-15

CN1S(=O)(=O)N(C)P12(N=P(CP(=NP13(N(C)S(=O)(=O)N1C)N(C)S(=O)(=O)N3C)(c1ccccc1)c1ccccc1)(c1ccccc1)c1ccccc1)N(C)S(=O)(=O)N2C
> 100 µM: HCT-15
inactive: HOP-18 > 100 µM | HL-60 > 100 µM | SK-MEL-5 > 100 µM | NCI-H23 > 100 µM | DMS-273 > 100 µM | K562 > 100 µM | SF-268 > 100 µM | LXFL 529 > 100 µM | UACC-257 > 100 µM | OVCAR-5 > 100 µM | IGROV-1 > 100 µM | NCI-H522 > 100 µM | SF-539 > 100 µM | SK-OV-3 > 100 µM | OVCAR-8 > 100 µM | UACC-62 > 100 µM | SNB-75 > 100 µM | A549 > 100 µM | 786-0 > 100 µM | TK-10 > 100 µM | SNB-78 > 100 µM | DMS-114 > 100 µM | DLD-1 > 100 µM | HCC 2998 > 100 µM | OVCAR-3 > 100 µM | MOLT-4 > 100 µM | UO-31 > 100 µM | A498 > 100 µM | NCI-H226 > 100 µM | HCT-116 > 100 µM | NCI-H460 > 100 µM | SW-620 > 100 µM | HT-29 > 100 µM | RPMI-8226 > 100 µM | ACHN > 100 µM | EKVX > 100 µM | M14 > 100 µM | CAKI-1 > 100 µM | CCRF-CEM > 100 µM | LOX IMVI > 100 µM | SNB-19 > 100 µM | XF498 > 100 µM | SN12C > 100 µM | Malme-3M > 100 µM | KM12 > 100 µM | U-251 > 100 µM | HOP-92 > 100 µM | KM-20L2 > 100 µM | RXF 631 > 100 µM | SK-MEL-28 > 100 µM | SK-MEL-2 > 100 µM | M19-MEL > 100 µM | RXF 393 > 100 µM | COLO 205 > 100 µM | HOP-62 > 100 µM
